Broadly, the Ki is the dissociation constant of the complex between target and ligand, obtained from inhibition or displacement. Read a low Ki as higher affinity.

The target of one assay is T1, A3 adenosine receptor (Homo sapiens, UniProt P0DMS8).
T1 construct: expressed in transfected cells; host or cells: HEK-293 or CHO cells (HEK-A3 or CHO-A3), membranes
T1 sequence (P0DMS8 1-318): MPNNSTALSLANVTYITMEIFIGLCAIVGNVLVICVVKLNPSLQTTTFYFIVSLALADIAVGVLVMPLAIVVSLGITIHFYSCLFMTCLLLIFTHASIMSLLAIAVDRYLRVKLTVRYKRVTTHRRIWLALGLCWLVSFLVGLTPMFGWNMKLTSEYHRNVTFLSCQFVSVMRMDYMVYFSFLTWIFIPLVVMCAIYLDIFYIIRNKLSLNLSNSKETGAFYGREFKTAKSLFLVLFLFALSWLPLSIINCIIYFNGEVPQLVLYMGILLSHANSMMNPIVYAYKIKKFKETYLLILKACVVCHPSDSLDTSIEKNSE
The experiment in a line: Radioligand binding competition, A3 AdoR (125I-AB-MECA), membranes of HEK-A3 or CHO-A3 cells. On the procedure: The cDNAs for human A1, A2A, A2B or A3 AdoRs were prepared by RT-PCR from total RNA of human cells or tissues and sequenced on both strands. The expression vector containing each of these cDNAs and a second vector containing a neomycin or puromycin-resistance gene were introduced to HEK-293 or CHO cells by Lipofectin-Plus (Life Technology). Colonies were selected by growing transfected cells in the presence of neomycin or puromycin. Stably transfected cells were maintained in Dulbecco's modified Eagle's medium (DMEM) or F-12 medium with 10% fetal bovine serum, 100 μg/ml penicillin, 100 μg/ml streptomycin and appropriate concentrations of neomycin or puromycin. These stably transfected cells were referred to as HEK-“AdoR” or CHO-“AdoR” depending on the receptors that they express. For example, cells that were transfected with A3 AdoRs were referred to as HEK-A3 or CHO-A3.
Monolayers of transfected cells were washed with phosphate buffered saline (PBS) and harvested in a buffer containing 10 mM HEPES (pH 7.4), 10 mM EDTA and protease inhibitors. The cells were homogenized in polytron for 1 minute at setting 4 and centrifuged at 29000 g for 15 minutes at 4° C. The cell pellets were washed with a buffer containing 10 mM HEPES (pH7.4), 1 mM EDTA and protease inhibitors, and were resuspended in the same buffer supplemented with 10% sucrose. Frozen aliquots were kept at −80° C.
The affinities of compounds for A1, A2A, A2B or A3 AdoRs were determined in competition studies using radioligands such as ^3H-CPX (A1 antagonist), or ^3H-CCPA (A1 agonist), ^3H-ZM241385 (A2A antagonist) or ^3H-CGS21680 (A2A agonist), ^3H-ZM241385 (A2B antagonist) or ^125I-AB-MECA (A3 agonist) and membranes of corresponding transfected cells. For example, to determine the affinity for A3 AdoRs, the competition assays were started by mixing 0.2 nM ^125I-AB-MECA with various concentrations of test compounds and 25 ug membrane proteins of HEK-A3 or CHO-A3 in TEM buffer (50 mM Tris, 1 mM EDTA and 10 mM MgCl2) supplemented with 1 U/ml adenosine deaminase. The assays were incubated for 90 minutes, stopped by filtration onto GF/B filter plates using Packard Harvester and washed four times with ice-cold TM buffer (10 mM Tris, 1 mM MgCl2, pH 7.4). The amounts of radioligands that bound to the GF/B filter plates were determined by scintillation counting. Nonspecific binding was determined in the presence of 10 μM R-PIA (phenylisopropyladenosine) or 1 μM IB-MECA. Bmax and KD values were calculated using GraphPad software.

In a further assay the target is T2, A1 adenosine receptor (Homo sapiens, UniProt P30542).
T2 construct: expressed in transfected cells; host or cells: HEK-293 or CHO cells, membranes
T2 sequence (P30542 1-326): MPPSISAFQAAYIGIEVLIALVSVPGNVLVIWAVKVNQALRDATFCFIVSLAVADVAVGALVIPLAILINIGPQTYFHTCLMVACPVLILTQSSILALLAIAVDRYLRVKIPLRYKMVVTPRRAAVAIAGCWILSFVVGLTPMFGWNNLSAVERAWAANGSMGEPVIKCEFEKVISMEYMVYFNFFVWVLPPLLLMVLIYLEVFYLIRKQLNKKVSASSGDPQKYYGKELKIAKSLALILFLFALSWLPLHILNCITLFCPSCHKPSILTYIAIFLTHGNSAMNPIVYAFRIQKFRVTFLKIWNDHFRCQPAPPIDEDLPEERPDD
The experiment in a line: Radioligand binding competition, A1 AdoR (3H-CPX or 3H-CCPA), membranes of transfected cells. Particulars: Table 2. On the procedure:
(§1) The cDNAs for human A1, A2A, A2B or A3 AdoRs were prepared by RT-PCR from total RNA of human cells or tissues and sequenced on both strands. The expression vector containing each of these cDNAs and a second vector containing a neomycin or puromycin-resistance gene were introduced to HEK-293 or CHO cells by Lipofectin-Plus (Life Technology). Colonies were selected by growing transfected cells in the presence of neomycin or puromycin. Stably transfected cells were maintained in Dulbecco's modified Eagle's medium (DMEM) or F-12 medium with 10% fetal bovine serum, 100 μg/ml penicillin, 100 μg/ml streptomycin and appropriate concentrations of neomycin or puromycin. […]
(§2) The affinities of compounds for A1, A2A, A2B or A3 AdoRs were determined in competition studies using radioligands such as ^3H-CPX (A1 antagonist), or ^3H-CCPA (A1 agonist), ^3H-ZM241385 (A2A antagonist) or ^3H-CGS21680 (A2A agonist), ^3H-ZM241385 (A2B antagonist) or ^125I-AB-MECA (A3 agonist) and membranes of corresponding transfected cells. […] The amounts of radioligands that bound to the GF/B filter plates were determined by scintillation counting. Nonspecific binding was determined in the presence of 10 μM R-PIA (phenylisopropyladenosine) or 1 μM IB-MECA. Bmax and KD values were calculated using GraphPad software.

The next assay has as its target T3, A2A adenosine receptor (Homo sapiens, UniProt P29274).
T3 construct: expressed in transfected cells; host or cells: HEK-293 or CHO cells, membranes
Briefly: Radioligand binding competition, A2A AdoR (3H-ZM241385 or 3H-CGS21680), membranes of transfected cells. Particulars: Table 2. Here is the method:
as §1, §2

The mark [1] stands for this setting: Table 1, 0.2 nM 125I-AB-MECA, HEK-A3 or CHO-A3 membranes.
Where [2] appears, read: Table 2, 125I-AB-MECA competition.

T3 sequence (P29274 whole entry): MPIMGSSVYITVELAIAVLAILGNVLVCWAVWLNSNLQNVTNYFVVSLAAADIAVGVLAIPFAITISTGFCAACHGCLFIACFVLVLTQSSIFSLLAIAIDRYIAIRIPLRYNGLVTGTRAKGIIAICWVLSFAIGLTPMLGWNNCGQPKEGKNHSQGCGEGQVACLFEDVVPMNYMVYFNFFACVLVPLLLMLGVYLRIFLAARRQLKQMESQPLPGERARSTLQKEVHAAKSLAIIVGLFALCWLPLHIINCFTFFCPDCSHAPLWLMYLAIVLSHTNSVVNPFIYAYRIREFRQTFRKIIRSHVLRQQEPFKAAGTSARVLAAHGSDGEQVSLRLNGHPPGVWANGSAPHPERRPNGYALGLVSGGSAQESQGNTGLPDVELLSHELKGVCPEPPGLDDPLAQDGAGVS

Consider `CCn1c(-n2cccn2)nc2c(N)nc(NCc3ccccc3)nc21` [(6-amino-9-ethyl-8-pyrazolylpurin-2-yl)benzylamine], for which, at A3 adenosine receptor (setting [1]), the Ki was 7 nM.
On to `CCn1c(-n2cc(-c3cccc(C(F)(F)F)c3)cn2)nc2c(N)nc(NCc3ccccc3)nc21` [(6-amino-9-ethyl-8-{4-[3-(trifluoromethyl)phenyl]pyrazolyl}purin-2-yl)benzylamine], for which the Ki at A3 adenosine receptor (setting [1]) was 1480 nM.
`CCn1c(-n2cc(C)cn2)nc2c(NC(=O)C(C)(C)C)nc(NCc3ccccc3)nc21` [N-{9-ethyl-8-(4-methylpyrazolyl)-2-[benzylamino]purin-6-yl}-2,2-dimethylpropanamide] returned an inhibitory constant (Ki) at A3 adenosine receptor (setting [1]) of 18.6 nM.
In the case of `CCn1c(-n2cc(C)cn2)nc2c(N)nc(NCc3ccccc3)nc21` [[6-amino-9-ethyl-8-(4-methylpyrazolyl)purin-2-yl]benzylamine], the Ki at A3 adenosine receptor (setting [1]) amounted to 2 nM; on A1 adenosine receptor, 225 nM; at A2A adenosine receptor, 2040 nM.
With “(6-amino-9-propyl-8-pyrazolylpurin-2-yl)(2-phenylethyl)amine”, the inhibitory constant (Ki) on A3 adenosine receptor (setting [1]) was found to be 52 nM.
On the same count and under the same terms, as for “(6-amino-9-propyl-8-pyrazolylpurin-2-yl)[2-(2,5-dimethoxyphenyl)ethyl]amine”, the figure is 112 nM; as for “(6-amino-9-propyl-8-pyrazolylpurin-2-yl)[2-(3-fluorophenyl)ethyl]amine”, 82 nM; as for “(6-amino-9-propyl-8-pyrazolylpurin-2-yl)[2-(4-fluorophenyl)ethyl]amine”, 210 nM.
Regarding “((1S)-1-phenylethyl)[6-amino-8-(4-methylpyrazolyl)-9-propylpurin-2-yl]amine”, on A3 adenosine receptor (setting [2]), the affinity, expressed as Ki, was 0.9 nM.
As for “N-{2-[(2-phenylethyl)amino]-9-propyl-8-pyrazolylpurin-6-yl}[3-(trifluoromethyl)phenyl]carboxamide”, the Ki at A3 adenosine receptor (setting [1]) is 910 nM.
On the same count and under the same terms, as for “N-{2-[(2-phenylethyl)amino]-9-propyl-8-pyrazolylpurin-6-yl}[4-(trifluoromethyl)phenyl]carboxamide”, the figure is 3120 nM.
“N-{9-ethyl-2-[benzylamino]-8-pyrazolylpurin-6-yl}-2-methoxyacetamide”: the inhibition constant (Ki) is 3 nM at A3 adenosine receptor (setting [1]), 3 nM at A3 adenosine receptor (setting [2]) and 3950 nM at A1 adenosine receptor.

The values above are taken from US20090099212A1, “A3 ADENOSINE RECEPTOR ANTAGONISTS” (priority 2007, published 2009).
